{
  "source": "patent US8883792B2",
  "about": "“Substituted isoquinoline derivative” (D. Western Therapeutics Institute, Inc., priority 2010, dated 2014)",
  "system": "rabbits (New Zealand White)",
  "experiment": "Ocular hypotensive effect in rabbits",
  "assay_type": "in vivo, rabbit",
  "details": "male New Zealand White rabbits, 0.04 mL eye drop, concentration of 1% (w/v) or lower, maximum ocular hypotensive rate vs vehicle-treated contralateral eye",
  "protocol": "The compound of the present invention was administered to rabbits (New Zealand White, sex: male, 3 to 6 per group) and evaluated for its ocular hypotensive effect.\nEach test compound was dissolved in a vehicle 1 (1.04 g of sodium dihydrogen phosphate dihydrate and 0.5 g of sodium chloride dissolved in purified water and then adjusted to pH 7.0 with sodium hydroxide to make the total amount to 100 mL) or a vehicle 2 (2% (w/v) aqueous boric acid solution) to prepare a test compound solution with a predetermined concentration.\nThe intraocular pressures of the rabbits were measured using Tiolat TonoVet handheld tonometer immediately before administration of test compound. The test compound solution and the vehicle were dropped at a volume of 0.04 mL to one eye and the contralateral eye, respectively, and the intraocular pressures were measured over time in the same way as above. The rate of the intraocular pressure of the eye receiving the test compound solution to that of the eye receiving the vehicle was calculated as an ocular hypotensive rate.",
  "note": "Where a name gives a salt, the structure may show the parent alone.",
  "data": [
    {"smiles": "C[C@H](CNCCc1cc2ccccc2o1)NS(=O)(=O)c1ccc2cnccc2c1", "note": "[Example 75, (R)—N-[1-{(2-(benzofuran-2-yl)ethylamino}propan-2-yl]isoquinoline-6-sulfonamidedihydrochloride]", "values": [
      {"measurement": "Ocular hypotensive activity", "value": "++ (maximum ocular hypotensive rate of 15% or more)"}
    ]},
    {"smiles": "C[C@H](CNCCc1ccc(-c2ccncc2)cc1)NS(=O)(=O)c1ccc2cnccc2c1", "note": "[Example 93, (R)—N-[1-{4-(pyridin-4-yl)phenethylamino}propan-2-yl]isoquinoline-6-sulfonamide trihydrochloride]", "values": [
      {"measurement": "Ocular hypotensive activity", "value": "++ (maximum ocular hypotensive rate of 15% or more)"}
    ]},
    {"smiles": "C[C@@H](NS(=O)(=O)c1ccc2cnccc2c1)[C@@H](N)CCCc1ccccc1", "note": "[Example 117, N-{(2R,3S)-3-amino-6-phenylhexan-2-yl)isoquinoline-6-sulfonamide hydrochloride]", "values": [
      {"measurement": "Ocular hypotensive activity", "value": "++ (maximum ocular hypotensive rate of 15% or more)"}
    ]},
    {"smiles": "CNC[C@@H](C)NS(=O)(=O)c1ccc2cnccc2c1", "note": "[Example 2, (R)—N-{1-(methylamino)propan-2-yl}isoquinoline-6-sulfonamide dihydrochloride]", "values": [
      {"measurement": "Ocular hypotensive activity", "value": "++ (maximum ocular hypotensive rate of 15% or more)"}
    ]},
    {"smiles": "Cc1ccccc1CCNC[C@@H](C)NS(=O)(=O)c1ccc2cnccc2c1.Cl", "note": "[Example 56, (R)—N-{1-(2-methylphenethylamino)propan-2-yl}isoquinoline-6-sulfonamide hydrochloride]", "values": [
      {"measurement": "Ocular hypotensive activity", "value": "++ (maximum ocular hypotensive rate of 15% or more)"}
    ]},
    {"smiles": "CCCCN[C@H](C)CNS(=O)(=O)c1ccc2cnccc2c1", "note": "[Example 11, (R)—N-{2-(butylamino)propyl}isoquinoline-6-sulfonamide dihydrochloride]", "values": [
      {"measurement": "Ocular hypotensive activity", "value": "+ (maximum ocular hypotensive rate of 5% or more and less than 15%)"}
    ]},
    {"smiles": "C[C@H](CNCCc1ccc(C(F)(F)F)cc1)NS(=O)(=O)c1ccc2cnccc2c1.Cl", "note": "[Example 60, (R)—N-{1-(4-trifluoromethylphenethylamino)propan-2-yl}isoquinoline-6-sulfonamide hydrochloride]", "values": [
      {"measurement": "Ocular hypotensive activity", "value": "++ (maximum ocular hypotensive rate of 15% or more)"}
    ]},
    {"smiles": "C[C@H](CNCCc1ccc(-c2ccccc2)cc1)NS(=O)(=O)c1ccc2cnccc2c1", "note": "[Example 92, (R)—N-[1-{2-(biphenyl-4-yl)ethylamino}propan-2-yl]isoquinoline-6-sulfonamide dihydrochloride]", "values": [
      {"measurement": "Ocular hypotensive activity", "value": "++ (maximum ocular hypotensive rate of 15% or more)"}
    ]},
    {"smiles": "C[C@H](CNCCc1ccccc1)NS(=O)(=O)c1ccc2c(O)nccc2c1.Cl", "note": "[Example 110, (R)—N-{1-(phenethylamino)propan-2-yl}-1-hydroxyisoquinoline-6-sulfonamide hydrochloride]", "values": [
      {"measurement": "Ocular hypotensive activity", "value": "++ (maximum ocular hypotensive rate of 15% or more)"}
    ]},
    {"smiles": "C[C@H](CNCCc1ccnc2ccccc12)NS(=O)(=O)c1ccc2cnccc2c1.Cl", "note": "[Example 65]", "values": [
      {"measurement": "Ocular hypotensive activity", "value": "+ (maximum ocular hypotensive rate of 5% or more and less than 15%)"}
    ]},
    {"smiles": "C[C@H](CNCCc1ccc(NC(N)=O)cc1)NS(=O)(=O)c1ccc2cnccc2c1.Cl", "note": "[Example 72, (R)—N-{1-(4-ureidophenethylamino)propan-2-yl}isoquinoline-6-sulfonamide hydrochloride]", "values": [
      {"measurement": "Ocular hypotensive activity", "value": "+ (maximum ocular hypotensive rate of 5% or more and less than 15%)"}
    ]},
    {"smiles": "C[C@H](CNCCc1cccc2ccccc12)NS(=O)(=O)c1ccc2cnccc2c1.Cl", "note": "[Example 46]", "values": [
      {"measurement": "Ocular hypotensive activity", "value": "++ (maximum ocular hypotensive rate of 15% or more)"}
    ]},
    {"smiles": "C[C@H](CNCCc1ccc(N)cc1)NS(=O)(=O)c1ccc2cnccc2c1.Cl.Cl.Cl", "note": "[Example 69, (R)—N-{1-(4-aminophenethylamino)propan-2-yl}isoquinoline-6-sulfonamide trihydrochloride]", "values": [
      {"measurement": "Ocular hypotensive activity", "value": "++ (maximum ocular hypotensive rate of 15% or more)"}
    ]},
    {"smiles": "C[C@H](CNCCc1ccccn1)NS(=O)(=O)c1ccc2cnccc2c1.Cl", "note": "[Example 81, (R)—N-[1-{2-(pyridin-2-yl)ethylamino}propan-2-yl]isoquinoline-6-sulfonamide hydrochloride]", "values": [
      {"measurement": "Ocular hypotensive activity", "value": "++ (maximum ocular hypotensive rate of 15% or more)"}
    ]},
    {"smiles": "C#CCNC[C@@H](C)NS(=O)(=O)c1ccc2cnccc2c1", "note": "[Example 47, (R)—N-{1-(prop-2-yn-1-ylamino)propan-2-yl}isoquinoline-6-sulfonamide dihydrochloride]", "values": [
      {"measurement": "Ocular hypotensive activity", "value": "++ (maximum ocular hypotensive rate of 15% or more)"}
    ]},
    {"smiles": "C[C@H](CNCCCc1ccccc1)NS(=O)(=O)c1ccc2cnccc2c1", "note": "[Example 34, (R)—N-{1-(3-phenylpropylamino)propan-2-yl}isoquinoline-6-sulfonamide dihydrochloride]", "values": [
      {"measurement": "Ocular hypotensive activity", "value": "++ (maximum ocular hypotensive rate of 15% or more)"}
    ]},
    {"smiles": "C[C@H](CNCCc1ccc(N(C)C)cc1)NS(=O)(=O)c1ccc2cnccc2c1.Cl", "note": "[Example 71, (R)—N-{1-(4-dimethylaminophenethylamino)propan-2-yl}isoquinoline-6-sulfonamide hydrochloride]", "values": [
      {"measurement": "Ocular hypotensive activity", "value": "++ (maximum ocular hypotensive rate of 15% or more)"}
    ]},
    {"smiles": "CCCCCNC[C@@H](C)NS(=O)(=O)c1ccc2cnccc2c1", "note": "[Example 19, (R)—N-{1-(pentylamino)propan-2-yl}isoquinoline-6-sulfonamide dihydrochloride]", "values": [
      {"measurement": "Ocular hypotensive activity", "value": "++ (maximum ocular hypotensive rate of 15% or more)"}
    ]},
    {"smiles": "CCNC[C@@H](C)NS(=O)(=O)c1ccc2cnccc2c1", "note": "[Example 3, (R)—N-{1-(ethylamino)propan-2-yl}isoquinoline-6-sulfonamide dihydrochloride]", "values": [
      {"measurement": "Ocular hypotensive activity", "value": "++ (maximum ocular hypotensive rate of 15% or more)"}
    ]},
    {"smiles": "C[C@H](CNCCc1ccccc1F)NS(=O)(=O)c1ccc2cnccc2c1", "note": "[Example 31, (R)—N-{1-(2-fluorophenethylamino)propan-2-yl}isoquinoline-6-sulfonamide dihydrochloride]", "values": [
      {"measurement": "Ocular hypotensive activity", "value": "++ (maximum ocular hypotensive rate of 15% or more)"}
    ]},
    {"smiles": "C[C@H](CC(N)CCc1ccccc1)NS(=O)(=O)c1ccc2cnccc2c1", "note": "(single isomer, unassigned; diastereomer b) [Example 119]", "values": [
      {"measurement": "Ocular hypotensive activity", "value": "++ (maximum ocular hypotensive rate of 15% or more)"}
    ]},
    {"smiles": "C[C@H](CNCC(O)c1cccnc1)NS(=O)(=O)c1ccc2cnccc2c1", "note": "(stereo partly drawn) [Example 88, N-[(2R)-1-{2-hydroxy-2-(pyridin-3-yl)ethylamino}propan-2-yl]isoquinoline-6-sulfonamide dihydrochloride]", "values": [
      {"measurement": "Ocular hypotensive activity", "value": "+ (maximum ocular hypotensive rate of 5% or more and less than 15%)"}
    ]},
    {"smiles": "C[C@H](CNCCc1ccco1)NS(=O)(=O)c1ccc2cnccc2c1.Cl", "note": "[Example 66, (R)—N-[1-{2-(furan-2-yl)ethylamino}propan-2-yl]isoquinoline-6-sulfonamide hydrochloride]", "values": [
      {"measurement": "Ocular hypotensive activity", "value": "++ (maximum ocular hypotensive rate of 15% or more)"}
    ]},
    {"smiles": "C[C@H](CN1CCNCC1)NS(=O)(=O)c1ccc2cnccc2c1", "note": "[Example 13, (R)—N-{1-(piperazin-1-yl)propan-2-yl}isoquinoline-6-sulfonamide trihydrochloride]", "values": [
      {"measurement": "Ocular hypotensive activity", "value": "+ (maximum ocular hypotensive rate of 5% or more and less than 15%)"}
    ]},
    {"smiles": "CC(C)CCNC[C@@H](C)NS(=O)(=O)c1ccc2cnccc2c1.Cl", "note": "[Example 21, (R)—N-{1-(isopentylamino)propan-2-yl}isoquinoline-6-sulfonamide hydrochloride]", "values": [
      {"measurement": "Ocular hypotensive activity", "value": "+ (maximum ocular hypotensive rate of 5% or more and less than 15%)"}
    ]},
    {"smiles": "C[C@H](CNCCc1ccccc1)NS(=O)(=O)c1ccc2cncc(-c3ccsc3)c2c1", "note": "[Example 115, (R)—N-{1-(phenethylamino)propan-2-yl}-4-(thiophen-3-yl) isoquinoline-6-sulfonamide dihydrochloride]", "values": [
      {"measurement": "Ocular hypotensive activity", "value": "++ (maximum ocular hypotensive rate of 15% or more)"}
    ]},
    {"smiles": "C[C@H](CNCCn1cncn1)NS(=O)(=O)c1ccc2cnccc2c1.Cl", "note": "[Example 68, (R)—N-[1-{2-(1H-1,2,4-triazol-1-yl)ethylamino}propan-2-yl]isoquinoline-6-sulfonamide hydrochloride]", "values": [
      {"measurement": "Ocular hypotensive activity", "value": "+ (maximum ocular hypotensive rate of 5% or more and less than 15%)"}
    ]},
    {"smiles": "C[C@H](CNCC(C)(C)C)NS(=O)(=O)c1ccc2cnccc2c1", "note": "[Example 17, (R)—N-{1-(neopentylamino)propan-2-yl}isoquinoline-6-sulfonamide dihydrochloride]", "values": [
      {"measurement": "Ocular hypotensive activity", "value": "++ (maximum ocular hypotensive rate of 15% or more)"}
    ]},
    {"smiles": "C[C@H](CNCC1CC1)NS(=O)(=O)c1ccc2cnccc2c1", "note": "[Example 18, (R)—N-{1-(cyclopropylmethylamino)propan-2-yl}isoquinoline-6-sulfonamide dihydrochloride]", "values": [
      {"measurement": "Ocular hypotensive activity", "value": "++ (maximum ocular hypotensive rate of 15% or more)"}
    ]},
    {"smiles": "C[C@H](CN(C)CCc1ccccc1)NS(=O)(=O)c1ccc2cnccc2c1", "note": "[Example 99, (R)—N-[1-{methyl(phenethyl)amino}propan-2-yl]isoquinoline-6-sulfonamide dihydrochloride]", "values": [
      {"measurement": "Ocular hypotensive activity", "value": "++ (maximum ocular hypotensive rate of 15% or more)"}
    ]},
    {"smiles": "C[C@H](CC(N)CCc1ccccc1)NS(=O)(=O)c1ccc2cnccc2c1", "note": "(single isomer, unassigned; diastereomer a) [Example 118]", "values": [
      {"measurement": "Ocular hypotensive activity", "value": "++ (maximum ocular hypotensive rate of 15% or more)"}
    ]},
    {"smiles": "CC=CCNC[C@H](C)NS(=O)(=O)c1ccc2cnccc2c1", "note": "[Example 8, (S)—N-{1-(but-2-enylamino)propan-2-yl}isoquinoline-6-sulfonamide dihydrochloride]", "values": [
      {"measurement": "Ocular hypotensive activity", "value": "++ (maximum ocular hypotensive rate of 15% or more)"}
    ]},
    {"smiles": "C[C@H](CNCCc1ccoc1)NS(=O)(=O)c1ccc2cnccc2c1.Cl", "note": "[Example 67, (R)—N-[1-{2-(furan-3-yl)ethylamino}propan-2-yl]isoquinoline-6-sulfonamide hydrochloride]", "values": [
      {"measurement": "Ocular hypotensive activity", "value": "++ (maximum ocular hypotensive rate of 15% or more)"}
    ]}
  ]
}
